# Results from patent US5633437A, “Gene exhibiting resistance to acetolactate synthase inhibitor herbicides” (Sandoz Ltd., priority 1994, dated 1997).
# Substitutions are numbered along the chain they refer to. Structures can show the parent of a compound that is named as a salt.
# T1: acetolactate synthase (ALS), resistant enzyme from R-XANST (Xanthium sp., UniProt Q41716)
# T1 construct: mature chloroplast form
# T1 sequence (Q41716 78-648): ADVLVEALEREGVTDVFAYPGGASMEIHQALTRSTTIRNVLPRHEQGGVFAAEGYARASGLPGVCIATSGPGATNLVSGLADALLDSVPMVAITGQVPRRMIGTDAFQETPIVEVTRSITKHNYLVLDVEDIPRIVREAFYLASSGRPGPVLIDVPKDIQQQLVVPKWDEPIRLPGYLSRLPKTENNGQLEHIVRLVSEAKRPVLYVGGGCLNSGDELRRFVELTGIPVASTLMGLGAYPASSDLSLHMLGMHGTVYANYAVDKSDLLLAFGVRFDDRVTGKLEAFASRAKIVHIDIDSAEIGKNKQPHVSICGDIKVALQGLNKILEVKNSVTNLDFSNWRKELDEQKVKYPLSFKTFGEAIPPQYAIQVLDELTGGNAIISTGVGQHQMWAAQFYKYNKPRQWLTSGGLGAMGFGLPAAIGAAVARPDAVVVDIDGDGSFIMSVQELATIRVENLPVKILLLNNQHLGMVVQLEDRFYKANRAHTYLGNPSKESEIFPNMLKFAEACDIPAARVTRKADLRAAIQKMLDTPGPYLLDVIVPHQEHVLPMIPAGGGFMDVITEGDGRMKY
# T2: acetolactate synthase (ALS), sensitive enzyme from S-XANST (Xanthium sp., UniProt Q41717)
# T2 construct: mature chloroplast form
# T2 sequence (Q41717 78-648): T1 sequence (Q41716 78-648) with L181F, H192Q, S445N, L475W
# B1: acetolactate synthase (ALS), resistant enzyme from R-XANST (Xanthium sp.) (protein)
# chain: T1 sequence (Q41716 78-648)
# notes: mature chloroplast form
# Columns and labels:
# [1] = target: T1, acetolactate synthase (ALS), resistant enzyme from R-XANST; test: ALS enzymatic evaluation, resistant enzyme isolated from R-XANST; assay type: biochemical; conditions: ALS from R-XANST leaves, 40% ammonium sulfate fraction; read-out: I50 (M) Resistant
# Method: (§1) Cocklebur is grown in a greenhouse. Five grams of fresh green leaf tissue are ground to a powder in a mortar at the temperature of liquid nitrogen. The powder is extracted with 100 ml of buffer containing 50 mM N-[2-hydroxyethyl]piperazine-N'-[3-propanesulfonic acid], (EPPS); pH 7.2; 5 mM MgCl2; 2 mM EDTA; 1 mM valine; 1 mM leucine; 10% glycerol; 10 mM pyruvate; 5 mM Dithiothreitol; 1% polyvinyl polypyrrolidone (PVPP) and […] flavin adenine dinucleotide and filtered through cheesecloth. The filtrate was centrifuged at 15,000×g for 15 min.
# (§2) The procedures used for the isolation of ALS from cocklebur are similar to those known in the art. The supernatant resulting from centrifugation of the crude extract is brought to 40% ammonium sulfate. The ammonium sulfate pellet is not frozen and is resuspended in standard buffer used for I50 determinations and then gel-filtered through the same buffer. This preparation is used for determinations of Km for pyruvate and I50. The Km is equal to the substrate concentration at which the initial reaction velocity is half maximal and also referred to as the Michaelis-Menten constant. The Km is determined using Lineweaver-Burke double reciporcial plots. I50 is the concentration in which 50% inhibition is observed and is determined from linear regression analysis of the linear portion of the dose/response curve.
# (§3) The I50 values by various ALS inhibitors are determined on both sensitive enzymes isolated from S-XANST and resistant enzymes isolated from R-XANST and are reported in Table 1.
# [2] = test system: acetolactate synthase (ALS), resistant enzyme from R-XANST; test: as above; assay type: biochemical; conditions: ratio I50 resistant / I50 sensitive enzyme
# Method: as §1, §2, §3
# [3] = test system: S-XANST (susceptible cocklebur); test: Herbicidal evaluation, post-emergence spray on susceptible cocklebur; assay type: in vivo, cocklebur (Xanthium sp.)
# Method: (§4) Seeds of S-XANST and R-XANST are planted one per pot in soil mix. Pots are placed on a heating mat and the soil temperature increased from about 65° F. to about 90° F. At the 2-3 leaf stage, plants are treated with test herbicides using a linear track laboratory sprayer calibrated to deliver 42.5 GPA. Plants are watered by subirrigation after herbicide application. Observations of percent control are made 21 days after herbicide application. The test ALS inhibitor herbicides are listed below including their chemical class:
# (§5) The effect of the various ALS inhibitors against R-XANST and S-XANST is depicted in FIG. 5. The results are reported as % control wherein 100% injury is equal to complete control as determined by growth. All treatments are replicated four times in a randomized complete block design.
# (§6) Additionally tests are preformed at much higher herbicide rates to determine the extent of resistance. […] Glean tested at 1.56 lb ai/A, a rate of 100 times field use, provided 88% injury to R-XANST. Pursuit provides 90% injury to R-XANST when used at 100 times the normal field rate, (6.25 lb ai/A).
# [4] = test system: R-XANST (resistant cocklebur biotype); test: Herbicidal evaluation, post-emergence spray on resistant cocklebur; assay type: in vivo, cocklebur (Xanthium sp.)
# Method: as §4, §5, §6
# [5] = target: T2, acetolactate synthase (ALS), sensitive enzyme from S-XANST; test: ALS enzymatic evaluation, sensitive enzyme isolated from S-XANST; assay type: biochemical, cocklebur (Xanthium sp.); conditions: ALS from S-XANST leaves, 40% ammonium sulfate fraction; read-out: I50 (M) Sensitive
# Method: as §1
# as §2, with “I50 is the concentration in which 50% inhibition is observed and is determined from linear regression analysis of the linear portion of the dose/response curve.” left out
# as §3
# [6] = substrate: CC(=O)C(=O)O; test: ALS enzymatic evaluation, resistant enzyme isolated from R-XANST; assay type: biochemical; conditions: other: R-XANST enzyme; Lineweaver-Burke plots; pH 7.2
# Method: as §1
# as §2, with “I50 is the concentration in which 50% inhibition is observed and is determined from linear regression analysis of the linear portion of the dose/response curve.” left out
# as §3
Molecule,IC50 [1] [M],Fold-resistance (R/S) [2],other results
"CC(C)C1(C)N=C(c2nc3ccccc3cc2C(=O)O)NC1=O (stereo not drawn) [Imazaquin, 2-[4,5-dihydro-4-methyl-4-(1-methylethyl)-5-oxo-1H-imidazole-2-yl]-3-quinolinecarboxylic acid]",0.0001,250,
COc1cc(OC)nc(Sc2cccc(Cl)c2C(=O)O)n1 [Staple],,,"injury to S-XANST ([3]; 0.03 lb ai/A, 21 days after application): greater than 90%; injury to R-XANST ([4]; highest test rate, 9.0 lb ai/A): ≤ 55%"
COc1cc(OC)nc(C(=O)c2c(Cl)ccc(Cl)c2C(=O)O)n1 [Di-Cl benzoate],0.0006,"2,200",
"COc1cc(OC)nc(C(=O)c2c(Cl)ccc(Cl)c2C(=O)O)n1 [SAN 2, 3-6-Dichloro-2-[(4,6-dimethoxy-2-pyrimidinyl)carbonyl]benzoic acid, isopropyl ammonium salt]",,,"injury to S-XANST ([3]; 0.1 lb ai/A, 2-3 leaf stage, 21 days after application): greater than 95%; injury to R-XANST ([4]; 30 lb ai/A, 21 days after application): ≤ 50%"
Cc1ccn2nc(S(=O)(=O)Nc3c(F)cccc3F)nc2n1 [Broadstrike],0.0006,"10,000",injury to S-XANST ([3]; 0.01 lb ai/A): greater than 95%; injury on R-XANST ([4]; 6 lb ai/A): 25%
"COc1nc(C)nc(NC(=O)NS(=O)(=O)c2ccccc2Cl)n1 [Chlorsulfurson, 2-chloro-N-[[CH-methoxy-6-methyl-1,3,5-triazin-2-yl-amino]carbonyl]benzenesulfonamide]",5e-05,"6,250","injury to R-XANST ([4]; 1.56 lb ai/A, 100 times field use): 88%"
Picolinate,0.001,"1,100",IC50 [5]: 9e-08 M
CC(C)C[C@H](N)C(=O)O [Leucine],0.001,1,
"CCc1cnc(C2=NC(C)(C(C)C)C(=O)N2)c(C(=O)O)c1 (single isomer, unassigned; (+)) [Imazethapyr, (+)-2-[4,5-dihydro-4-methyl-4-(1-methylethyl)-5-oxo-1H-imidazole-2-yl]-5-ethyl-3-pyridinecarboxylic acid]",0.0001,100,"injury to R-XANST ([4]; 100 times the normal field rate, 6.25 lb ai/A): 90%"
B1,,,Km [6]: 6 mM
